Patent US10750743B2, “Pyridazinone herbicides” (E.I. DU PONT DE NEMOURS AND COMPANY, priority 2015, dated 2020)

Tests used:
Assay type in all cases: in vivo
[1] = test system: barnyardgrass (Echinochloa crus-galli); test: Test A preemergence, directed soil spray, visual injury rating; conditions: 0 is no effect, 100 is complete control
Procedure, shortened: (§1)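 Seeds sown in a loam soil–sand blend received a directed preemergence soil spray of test chemical in a non-phytotoxic solvent mixture with surfactant. Postemergence plants were sprayed at 2 to 10 cm, one- to two-leaf stage. After approximately 10 d in greenhouse, injury was visually rated 0 (no effect) to 100 (complete control) against untreated controls.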

[2] = test system: foxtail, giant (giant foxtail, Setaria faberii); test: as above; conditions: 0 is no effect, 100 is complete control
Procedure, shortened: as §1

kochia (Kochia scoparia) [3] = test: as above; conditions: 0 is no effect, 100 is complete control
Procedure, shortened: as §1

[4] = test system: pigweed (Amaranthus retroflexus); test: as above; conditions: 0 is no effect, 100 is complete control
Procedure, shortened: as §1

[5] = test system: ragweed (common ragweed, Ambrosia elatior); test: as above; conditions: 0 is no effect, 100 is complete control
Procedure, shortened: as §1

[6] = test system: ryegrass, It. (Italian ryegrass, Lolium multiflorum); test: as above; conditions: 0 is no effect, 100 is complete control
Procedure, shortened: as §1

[7] = test system: barnyardgrass (Echinochloa crus-galli); test: Test B flooded paddy test, visual rating; conditions: Flood, 250 g ai/ha, applied to paddy water, rated after 13 to 15 d
Procedure, shortened: (§2)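 Plants at the 2-leaf stage were flooded to 3 cm above soil, and test compounds were applied directly into the paddy water, which was held at that depth throughout. After 13 to 15 d in a greenhouse, injury was rated visually against untreated controls on a 0–100 scale (0 no effect, 100 complete control).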

[8] = test system: ducksalad (Heteranthera limosa); test: Test B flooded paddy test, visual rating; conditions: Flood, 250 g ai/ha, applied to paddy water, rated after 13 to 15 d
Procedure, shortened: as §2

rice (Oryza sativa) = test: Test B flooded paddy test, visual rating; conditions: Flood, 250 g ai/ha, applied to paddy water, rated after 13 to 15 d
Procedure, shortened: as §2

[9] = test system: sedge, umbrella (small-flower umbrella sedge, Cyperus difformis); test: Test B flooded paddy test, visual rating; conditions: Flood, 250 g ai/ha, applied to paddy water, rated after 13 to 15 d
Procedure, shortened: as §2

[10] = test system: barnyardgrass (Echinochloa crus-galli); test: Test A postemergence application, visual injury rating; conditions: 0 to 100 scale, 0 no effect, 100 complete control
Procedure, shortened: as §1

[11] = test system: blackgrass (Alopecurus myosuroides); test: as above; conditions: 0 to 100 scale, 0 no effect, 100 complete control
Procedure, shortened: as §1

corn (Zea mays) = test: as above; conditions: 0 to 100 scale, 0 no effect, 100 complete control
Procedure, shortened: as §1

[12] = test system: foxtail, giant (giant foxtail, Setaria faberii); test: as above; conditions: 0 to 100 scale, 0 no effect, 100 complete control
Procedure, shortened: as §1

[13] = test system: galium (catchweed bedstraw, Galium aparine); test: as above; conditions: 0 to 100 scale, 0 no effect, 100 complete control
Procedure, shortened: as §1

kochia (Kochia scoparia) [14] = test: as above; conditions: 0 to 100 scale, 0 no effect, 100 complete control
Procedure, shortened: as §1

[15] = test system: pigweed (Amaranthus retroflexus); test: as above; conditions: 0 to 100 scale, 0 no effect, 100 complete control
Procedure, shortened: as §1

[16] = test system: ragweed (common ragweed, Ambrosia elatior); test: as above; conditions: 0 to 100 scale, 0 no effect, 100 complete control
Procedure, shortened: as §1

[17] = test system: ryegrass, It. (Italian ryegrass, Lolium multiflorum); test: as above; conditions: 0 to 100 scale, 0 no effect, 100 complete control
Procedure, shortened: as §1

[18] = test system: wheat (Triticum aestivum); test: as above; conditions: 0 to 100 scale, 0 no effect, 100 complete control
Procedure, shortened: as §1

Row | Structure (SMILES) | Plant response rating (0 to 100 scale), Barnyardgrass ([1]; 125 g ai/ha) | Plant response rating (0 to 100 scale), Barnyardgrass ([1]; 500 g ai/ha) | Plant response rating (0 to 100 scale), Foxtail, Giant ([2]; 125 g ai/ha) | Plant response rating (0 to 100 scale), Foxtail, Giant ([2]; 500 g ai/ha) | Plant response rating (0 to 100 scale), Kochia (kochia (Kochia scoparia) [3]; 125 g ai/ha) | Plant response rating (0 to 100 scale), Kochia (kochia (Kochia scoparia) [3]; 500 g ai/ha) | Plant response rating (0 to 100 scale), Pigweed ([4]; 125 g ai/ha) | Plant response rating (0 to 100 scale), Pigweed ([4]; 500 g ai/ha) | Plant response rating (0 to 100 scale), Ragweed ([5]; 125 g ai/ha) | Plant response rating (0 to 100 scale), Ragweed ([5]; 500 g ai/ha) | Plant response rating (0 to 100 scale), Ryegrass, It. ([6]; 125 g ai/ha) | Plant response rating (0 to 100 scale), Ryegrass, It. ([6]; 500 g ai/ha) | Barnyardgrass plant response rating (0 to 100 scale, 0 is no effect, 100 is complete control) [7] | Ducksalad plant response rating (0 to 100 scale, 0 is no effect, 100 is complete control) [8] | Rice plant response rating (0 to 100 scale, 0 is no effect, 100 is complete control) (rice (Oryza sativa)) | Sedge, Umbrella plant response rating (0 to 100 scale, 0 is no effect, 100 is complete control) [9] | Barnyardgrass plant response rating ([10]; 125 g ai/ha) | Barnyardgrass plant response rating ([10]; 500 g ai/ha) | Blackgrass plant response rating ([11]; 125 g ai/ha) | Blackgrass plant response rating ([11]; 500 g ai/ha) | other results
1 | CCc1sc2ncccc2c1-c1c(O)c(C)nn(C)c1=O [Compound 18] | 0 | 0 | 0 | 0 | 0 | 0 | 0 | 10 | 0 | 0 | 0 | 0 | 0 | 0 | 0 | 0 | 0 | 0 | 0 | 0 | Corn plant response rating (corn (Zea mays); 125 g ai/ha): 0; Corn plant response rating (corn (Zea mays); 500 g ai/ha): 0; Foxtail, Giant plant response rating ([12]; 125 g ai/ha): 0; Foxtail, Giant plant response rating ([12]; 500 g ai/ha): 0; Galium plant response rating ([13]; 125 g ai/ha): 0; Galium plant response rating ([13]; 500 g ai/ha): 20; Kochia plant response rating (kochia (Kochia scoparia) [14]; 125 g ai/ha): 0; Kochia plant response rating (kochia (Kochia scoparia) [14]; 500 g ai/ha): 0; Pigweed plant response rating ([15]; 125 g ai/ha): 0; Pigweed plant response rating ([15]; 500 g ai/ha): 30; Ragweed plant response rating ([16]; 125 g ai/ha): 0; Ragweed plant response rating ([16]; 500 g ai/ha): 0; Ryegrass, It. plant response rating ([17]; 125 g ai/ha): 0; Ryegrass, It. plant response rating ([17]; 500 g ai/ha): 0; Wheat plant response rating ([18]; 125 g ai/ha): 0; Wheat plant response rating ([18]; 500 g ai/ha): 0
2 | CCOC(=O)Oc1c(C)nn(C)c(=O)c1-c1c(CC)sc2ncccc12 [Compound 19] | 0 | 0 | 0 | 0 | 0 | 0 | 0 | 20 | 0 | 0 | 0 | 0 | 0 | 0 | 0 | 0 | 0 | 0 | 0 | 0 | Corn plant response rating (corn (Zea mays); 125 g ai/ha): 0; Corn plant response rating (corn (Zea mays); 500 g ai/ha): 0; Foxtail, Giant plant response rating ([12]; 125 g ai/ha): 0; Foxtail, Giant plant response rating ([12]; 500 g ai/ha): 0; Galium plant response rating ([13]; 125 g ai/ha): 0; Galium plant response rating ([13]; 500 g ai/ha): 20; Kochia plant response rating (kochia (Kochia scoparia) [14]; 125 g ai/ha): 0; Kochia plant response rating (kochia (Kochia scoparia) [14]; 500 g ai/ha): 0; Pigweed plant response rating ([15]; 125 g ai/ha): 10; Pigweed plant response rating ([15]; 500 g ai/ha): 30; Ragweed plant response rating ([16]; 125 g ai/ha): 0; Ragweed plant response rating ([16]; 500 g ai/ha): 0; Ryegrass, It. plant response rating ([17]; 125 g ai/ha): 0; Ryegrass, It. plant response rating ([17]; 500 g ai/ha): 0; Wheat plant response rating ([18]; 125 g ai/ha): 0; Wheat plant response rating ([18]; 500 g ai/ha): 0
3 | CCc1sc2ncccc2c1-c1c(OC(=O)OC(C)C)c(C)nn(C)c1=O [Compound 20] | 0 | 0 | 0 | 0 | 0 | 0 | 0 | 40 | 0 | 0 | 0 | 0 | 0 | 0 | 0 | 0 | 0 | 0 | 0 | 0 | Corn plant response rating (corn (Zea mays); 125 g ai/ha): 0; Corn plant response rating (corn (Zea mays); 500 g ai/ha): 0; Foxtail, Giant plant response rating ([12]; 125 g ai/ha): 0; Foxtail, Giant plant response rating ([12]; 500 g ai/ha): 0; Galium plant response rating ([13]; 125 g ai/ha): 10; Galium plant response rating ([13]; 500 g ai/ha): 40; Kochia plant response rating (kochia (Kochia scoparia) [14]; 125 g ai/ha): 0; Kochia plant response rating (kochia (Kochia scoparia) [14]; 500 g ai/ha): 0; Pigweed plant response rating ([15]; 125 g ai/ha): 20; Pigweed plant response rating ([15]; 500 g ai/ha): 50; Ragweed plant response rating ([16]; 125 g ai/ha): 0; Ragweed plant response rating ([16]; 500 g ai/ha): 0; Ryegrass, It. plant response rating ([17]; 125 g ai/ha): 0; Ryegrass, It. plant response rating ([17]; 500 g ai/ha): 0; Wheat plant response rating ([18]; 125 g ai/ha): 0; Wheat plant response rating ([18]; 500 g ai/ha): 0
